Measurements from patent US20190159450A1, “PYRIDINE-BASED COMPOUND INCLUDING ISOXAZOLINE RING AND USE THEREOF AS HERBICIDE” (MOGHU RESEARCH CENTER LTD., priority 2016, published 2019).

Experiments:
Format in all cases: in vivo
maize [1] = experiment: Herbicidal activity test, pre-weeds emergence treatment (crop damage); settings: assessed 2 to 3 weeks after spraying, scale 0-10 (0: no effect, 10: complete death)
Method: (§1) A rectangular plastic pot with a surface area of 300 cm^2 was filled with sandy loam soil and mixed soil at a ratio of 1:1, and four kinds of weeds including Quamoclit pennata, Abutilon theophrasti Medicus, and Aeschynomene indica, Xanthium strumarium were sown therein. In another pot made in the same way, three kinds of crop seeds including maize, wheat, and rice were sown. The pots were watered and one day later, a medicament was sprayed thereon. The spraying was performed by using a track sprayer (R&D Sprayer, USA) equipped with Teejet 8002EVS (Spraying Systems Co., USA) nozzle, and the spray amount was controlled to be 1000 L/ha. A spray solution was prepared by dissolving the compound of each example or a control material in acetone, and then, adding the same amount of 0.1% (v/v) tween 20 aqueous solution thereto. The spray amount was 200 g/ha. The pots were placed in a greenhouse in which the temperature was maintained at 25° C. to 30° C. during the day and 15° C. to 25° C. during the night, and was regularly watered. After 2 to 3 weeks from the spraying of the compounds or the control material, the efficacy and the damages on each weed and each crop were assessed according to the scale of 0-10 (0: no effect, 10: complete death) scale and the results are shown in Table 3 below.
(§2) Pots for crops and weeds were prepared in the same manner as the test method illustrated in Table 3, and three kinds of weeds selected from Quamoclit pennata, Abutilon theophrasti Medicus, and Aeschynomene indica, Xanthium strumarium were used.

rice [2] = experiment: as above; settings: assessed 2 to 3 weeks after spraying, scale 0-10 (0: no effect, 10: complete death)
Method: as §1, §2

wheat [3] = experiment: as above; settings: assessed 2 to 3 weeks after spraying, scale 0-10 (0: no effect, 10: complete death)
Method: as §1, §2

[4] = test system: Abutilon theophrasti Medicus; experiment: Herbicidal activity test, pre-weeds emergence treatment; settings: assessed 2 to 3 weeks after spraying, scale 0-10 (0: no effect, 10: complete death)
Method: as §1, §2

Aeschynomene indica [5] = experiment: as above; settings: assessed 2 to 3 weeks after spraying, scale 0-10 (0: no effect, 10: complete death)
Method: as §1, §2

Quamoclit pennata [6] = experiment: as above; settings: assessed 2 to 3 weeks after spraying, scale 0-10 (0: no effect, 10: complete death)
Method: as §1, §2

Xanthium strumarium [7] = experiment: as above; settings: assessed 2 to 3 weeks after spraying, scale 0-10 (0: no effect, 10: complete death)
Method: as §1, §2

maize [8] = experiment: Herbicidal activity test, post-weeds emergence treatment (crop damage); settings: assessed after 2 to 3 weeks, 0: no effect, 10: complete death
Method: as §1
(§3) Pots for crops and weeds were prepared in the same manner as in Experimental Example 1, and then, when the crops and the weeds were raised up to 2 weeks roughly on a third-leaf stage, the compounds and the control material were sprayed thereon in the same manner as described above. The spray amount was 200 g/ha. After 2 to 3 weeks from the spraying of the test substance or the control substance, the efficacy and the damages on each weed and each crop were assessed according to the scale of 0-10 (0: no effect, 10: complete death) scale.
(§4) Pots for crops and weeds were prepared in the same manner as the test method illustrated in Table 5, and four kinds of weeds selected from Quamoclit pennata, Abutilon theophrasti Medicus, and Aeschynomene indica, Xanthium strumarium were used. The spray amount was 200 g/ha for crops and 50 g/ha for weeds.

rice [9] = experiment: as above; settings: assessed after 2 to 3 weeks, 0: no effect, 10: complete death
Method: as §1, §3, §4

wheat [10] = experiment: as above; settings: assessed after 2 to 3 weeks, 0: no effect, 10: complete death
Method: as §1, §3, §4

[11] = test system: Abutilon theophrasti Medicus; experiment: Herbicidal activity test, post-weeds emergence treatment; settings: assessed after 2 to 3 weeks, 0: no effect, 10: complete death
Method: as §1, §3, §4

Aeschynomene indica [12] = experiment: as above; settings: assessed after 2 to 3 weeks, 0: no effect, 10: complete death
Method: as §1, §3, §4

Quamoclit pennata [13] = experiment: as above; settings: assessed after 2 to 3 weeks, 0: no effect, 10: complete death
Method: as §1, §3, §4

Xanthium strumarium [14] = experiment: as above; settings: assessed after 2 to 3 weeks, 0: no effect, 10: complete death
Method: as §1, §3, §4

[15] = spray amount 200 g/ha for crops, Table 6
[16] = spray amount 50 g/ha for weeds, Table 6

| SMILES | PRE ZEAMX (maize), damage score (maize [1]; Table 3, 200 g/ha) | PRE ORYSA (rice), damage score (rice [2]; Table 3, 200 g/ha) | PRE TRZAW (wheat), damage score (wheat [3]; Table 3, 200 g/ha) | PRE ABUTH (Abutilon theophrasti Medicus), efficacy score ([4]; Table 3, 200 g/ha) | PRE AESIN (Aeschynomene indica), efficacy score (Aeschynomene indica [5]; Table 3, 200 g/ha) | PRE IPOAN (Quamoclit pennata), efficacy score (Quamoclit pennata [6]; Table 3, 200 g/ha) | PRE XANST (Xanthium strumarium), efficacy score (Xanthium strumarium [7]; Table 3, 200 g/ha) | ZEAMX (maize) damage, scale of 0-10 (maize [8]; spray amount 200 g/ha, Table 5) | ORYSA (rice) damage, scale of 0-10 (rice [9]; spray amount 200 g/ha, Table 5) | TRZAW (wheat) damage, scale of 0-10 (wheat [10]; spray amount 200 g/ha, Table 5) | ABUTH (Abutilon theophrasti Medicus) herbicidal efficacy, scale of 0-10 ([11]; spray amount 200 g/ha, Table 5) | AESIN (Aeschynomene indica) herbicidal efficacy, scale of 0-10 (Aeschynomene indica [12]; spray amount 200 g/ha, Table 5) | IPOAN (Quamoclit pennata) herbicidal efficacy, scale of 0-10 (Quamoclit pennata [13]; spray amount 200 g/ha, Table 5) | XANST (Xanthium strumarium) herbicidal efficacy, scale of 0-10 (Xanthium strumarium [14]; spray amount 200 g/ha, Table 5) | PRE ZEAMX (maize), damage score (maize [1]; Table 4, 200 g/ha) | PRE ORYSA (rice), damage score (rice [2]; Table 4, 200 g/ha) | PRE TRZAW (wheat), damage score (wheat [3]; Table 4, 200 g/ha) | PRE ABUTH (Abutilon theophrasti Medicus), efficacy score ([4]; Table 4, 200 g/ha) | PRE AESIN (Aeschynomene indica), efficacy score (Aeschynomene indica [5]; Table 4, 200 g/ha) | PRE IPOAN (Quamoclit pennata), efficacy score (Quamoclit pennata [6]; Table 4, 200 g/ha) | further results |
| --- | --- | --- | --- | --- | --- | --- | --- | --- | --- | --- | --- | --- | --- | --- | --- | --- | --- | --- | --- | --- | --- |
| COC(=O)c1nc(C2CC(C(F)(F)F)=NO2)cc(N)c1Cl (centres unmarked) [Compound 39, methyl 4-amino-3-chloro-6-(3-trifluoromethyl-4,5-dihydroisoxazol-5-yl)picolinate] | 0 | 1 | 0 | 4 | 8 | 6 | 6 | 0 | 0 | 0 | 3 | 10 | 4 | 10 | – | – | – | – | – | – | – |
| COC(=O)c1nc(C2CC(Br)=NO2)cc(N)c1Cl (centres unmarked) [Compound 33, methyl 4-amino-3-chloro-6-(3-bromo-4,5-dihydroisoxazol-5-yl)picolinate] | – | – | – | – | – | – | – | – | – | – | – | – | – | – | 2 | 0 | 0 | 6 | 10 | 6 | PRE XANST (Xanthium strumarium), efficacy score (Xanthium strumarium [7]; Table 4, 200 g/ha): 10; ZEAMX (maize) damage, scale of 0-10 (maize [8]; [15]): 0; ORYSA (rice) damage, scale of 0-10 (rice [9]; [15]): 0; TRZAW (wheat) damage, scale of 0-10 (wheat [10]; [15]): 0; ABUTH (Abutilon theophrasti Medicus) herbicidal efficacy, scale of 0-10 [11, 16]: 7; AESIN (Aeschynomene indica) herbicidal efficacy, scale of 0-10 (Aeschynomene indica [12]; [16]): 9; IPOAN (Quamoclit pennata) herbicidal efficacy, scale of 0-10 (Quamoclit pennata [13]; [16]): 5; XANST (Xanthium strumarium) herbicidal efficacy, scale of 0-10 (Xanthium strumarium [14]; [16]): 10 |
| COC(=O)c1nc(C2CC(C(F)(F)F)=NO2)cc(NC(C)=O)c1Cl (centres unmarked) [Compound 4, methyl 4-acetamido-3-chloro-6-(3-(trifluoromethyl)-4,5-dihydroisoxazol-5-yl)picolinate] | 0 | 0 | 0 | 6 | 8 | 7 | 6 | 0 | 0 | 0 | 3 | 10 | 3 | 8 | – | – | – | – | – | – | – |
| Nc1cc(C2CC(Br)=NO2)nc(C(=O)OCc2ccc(F)cc2)c1Cl (centres unmarked) [Compound 90, 4-fluorobenzyl 4-amino-6-(3-bromo-4,5-dihydroisoxazol-5-yl)-3-chloropicolinate] | – | – | – | – | – | – | – | – | – | – | – | – | – | – | 0 | 0 | 0 | 3 | 10 | 3 | PRE XANST (Xanthium strumarium), efficacy score (Xanthium strumarium [7]; Table 4, 200 g/ha): 7; ZEAMX (maize) damage, scale of 0-10 (maize [8]; [15]): 0; ORYSA (rice) damage, scale of 0-10 (rice [9]; [15]): 0; TRZAW (wheat) damage, scale of 0-10 (wheat [10]; [15]): 0; ABUTH (Abutilon theophrasti Medicus) herbicidal efficacy, scale of 0-10 [11, 16]: 5; AESIN (Aeschynomene indica) herbicidal efficacy, scale of 0-10 (Aeschynomene indica [12]; [16]): 7; IPOAN (Quamoclit pennata) herbicidal efficacy, scale of 0-10 (Quamoclit pennata [13]; [16]): 4; XANST (Xanthium strumarium) herbicidal efficacy, scale of 0-10 (Xanthium strumarium [14]; [16]): 10 |
